Patent US10729749B2, “Neurodegenerative disorders” (priority 2014, dated 2020)
Ends that are not written are not given here.

Legend:
α7 nicotinic-receptor = α7 nicotinic-receptor (Homo sapiens, UniProt P36544); conditions: cited from earlier work
PC12 cells [1] = assay: Acetylcholinesterase activity assay (AChE release from PC12 cells, Ellman reagent); type: cell-based; conditions: % AChE release compared to untreated control
Method: AChE activity was measured using the Ellman reagent that measures the presence of thiol groups as a result of AChE activity. Cells were plated the day before the experiment as for the cell viability assay. […] The Ellman reagent was prepared as a mixture of the 3 solutions in a ratio 33(A):3(B):4(C). Absorbance measurements were taken at regular intervals (3, 10, 30 and 60 mins) across experiments at 405 nm.

[2] = Cell viability assay (Cell Counting Kit-8); type: cell-based; conditions: % PC12 cell viability compared to untreated control;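 also: PC12 cells in 96-well plates, WST-8 turned into formazan by cellular dehydrogenases, absorbance read at 450 nm after 2 h with the reagent, signal proportional to living cell number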
Description: (§1) A Cell Counting Kit-8 (CCK-8) was used as an improvement of the SRB technique used before. By utilizing the highly water-soluble tetrazolium salt WST-8, CCK-8 produces a water-soluble formazan dye upon reduction in the presence of an electron carrier. WST-8 is reduced by dehydrogenases in cells to give a yellow colored product (formazan), which is soluble in the tissue culture medium. The amount of the formazan dye generated by the activity of dehydrogenases in cells is directly proportional to the number of living cells. PC12 cells are plated in 200 μl of complete growth medium the day before the experiment in 96 well plates. […] Subsequently, 100 μl of growth medium is removed and 10 μl of CCK-8 (Cell Counting Kit-8) solution is added. The plate is incubated for 2 hours in the incubator and then placed in the absorbance plate reader. The absorbance must be measured at 450 nm.

PC12 cells [3] = assay: Calcium fluorometry (Fluo-8, acetylcholine-induced calcium influx); type: cell-based; set-up: Calcium: scale not given here; conditions: for Calcium: calcium influx value, control based on acetylcholine alone
Description: A final criterion used to determine active peptides is the amount of calcium influx into PC12 cells caused by the peptide. The calcium influx value can be calculated as described in the methods section. The calcium value corresponds to the result from the experiment when applying T30 or Aβ alone or in conjunction with the small peptides. The control value for these experiments is based on the calcium influx induced by acetylcholine alone. Preferably, the peptide, derivative or analogue thereof has a calcium influx value of less than 120, and more preferably a value of 97-120.
PC12 cells are plated in 200 μl of complete growth medium the day before the experiment in 96 well plates. On the day of the experiment, the Fluo-8 solution (Abcam) is prepared (as per provider protocol). Subsequently, 100 μl of growth medium is removed and 100 μl of Fluo-8 solution is added. Treatments with T30 or Aβ in conjunction with NBP-14 or small peptides are added and incubated for 30 minutes in the incubator and 30 minutes room temperature.
After 1 hour, the plate is placed in the fluorescence plate reader (Fluostar). Before reading the fluorescence, acetylcholine (ACh) 100 μM is prepared and placed in the Fluostar injector. For each well, the reading will be formed by a basal fluorescence followed by acetylcholine injection that will induce an increase of calcium via nicotinic receptors. The effects of the peptides are then evaluated.

PC12 cells [4] = assay: Value coefficient (AChE release vs PC12 cell viability) and filter selection; type: cell-based; conditions: for Value AChE/Viability: 1.0 to 1.1 = protective, control = 1
Description: AChE release vs PC12 cell viability (for which there is a significant negative correlation); • 2. In silico binding to the allosteric site of the α7 nicotinic-receptor; • 3. Calcium influx into PC12 cells; and • 4. Peptide size.

basal forebrain = assay: VSDI of evoked responses in basal forebrain brain slices; set-up: species or system rat; conditions: T30 2 μM & peptide 4 μM in perfusate; 30V electrical stimulation
Method: Coronal rat brain slices were prepared according to the procedure described in (Badin et al., 2013) but this time containing basal forebrain (+0.70 and −0.26 millimetres (mm) from bregma (Paxinos and Watson, 1998). Optical imaging using voltage-sensitive dyes was then performed as previously described (Badin et al., 2013, Neuropharmacology. 73C:10-18).
VSDI data were recorded in 4×4 mm 2-dimensional images, equivalent to 100×100 pixels—each pixel being 40×40 micrometres (μm), from which critical data were extracted. VSDI data was not gathered throughout the experimental run, but in fact was recorded in discrete periods of time 15 minutes in length. The inter-stimulus interval (ISI) between stimulations was 28 seconds and therefore, every recording epoch consisted of 32 successive stimulations. The data from all 32 stimulations were then averaged into a single file for each experimental condition and analysed using a VSDI data analysis toolbox specially made for MatLab (Bourgeois et al., 2014, PLoS One. 9:e108686). […] In order to quantify VSDI data however, the area under the curve was calculated (summed fluorescence fractional change, FIG. 11-22) between the moment of stimulation (t=0) and 280 ms after that; this method of quantification takes into account all the components of the immediate and longer-latency response. […]

PC12 cells [5] = assay: Cell viability assay (Cell Counting Kit-8); type: cell-based; conditions: toxic peptide alone; compared to untreated control;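 also: PC12 cells in 96-well plates, WST-8 turned into formazan by cellular dehydrogenases, absorbance read at 450 nm after 2 h with the reagent, signal proportional to living cell number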
Description: as §1

cells = conditions: inventors' previous work; cited from earlier work
rat brain slices = conditions: inventors' previous work, cited from earlier work
[6] = T30 5 μM + small peptide 0.5 μM

Sequence of α7 nicotinic-receptor (P36544 23-502): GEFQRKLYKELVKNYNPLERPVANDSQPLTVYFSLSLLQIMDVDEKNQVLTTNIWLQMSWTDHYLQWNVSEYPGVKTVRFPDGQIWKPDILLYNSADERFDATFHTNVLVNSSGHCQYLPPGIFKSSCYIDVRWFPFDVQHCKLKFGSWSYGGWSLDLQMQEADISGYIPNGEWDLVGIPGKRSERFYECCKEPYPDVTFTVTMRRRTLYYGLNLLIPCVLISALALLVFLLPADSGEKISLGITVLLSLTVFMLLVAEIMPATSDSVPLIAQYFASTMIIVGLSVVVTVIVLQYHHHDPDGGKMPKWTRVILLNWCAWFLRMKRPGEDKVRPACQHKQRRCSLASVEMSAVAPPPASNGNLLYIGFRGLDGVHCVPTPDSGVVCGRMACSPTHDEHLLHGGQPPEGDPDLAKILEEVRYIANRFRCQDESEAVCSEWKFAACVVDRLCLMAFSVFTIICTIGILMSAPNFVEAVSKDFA

For `COc1ccc2c3c1O[C@H]1C[C@@H](O)C=C[C@@]31CCN(C)C2` [galanthamine], the “affinity for the α7 nicotinic-receptor” value (α7 nicotinic-receptor) is given as 10 µM.

For “AEFHRWSSYMVHWK (listed as Homo sapiens) [T14, linear 14 amino acid peptide from the C-terminus of AChE]”, the “affinity for the α7 nicotinic-receptor” value (α7 nicotinic-receptor) is listed as 0.005 µM.

Compound KAEFHR [NBP-603, KAEFHR] has an AChE (PC12 cells [1]; [6]) of 96.06%, a viability [2, 6] of 94.8% and a Calcium (PC12 cells [3]; T30 + small peptide) of 119.86. For the same compound, the “dose-dependent effect on calcium potentiation against T30” value (PC12 cells [3]; dose-dependent experiments, FIGS. 8 and 9) was “protect against T30 effects”, the “Value AChE/Viability” value (PC12 cells [4]; [6]) was 1.01 and the “neuroprotective agent against T30 when all four filters are taken into consideration” value (PC12 cells [4]; filters: value coefficient, in silico binding, calcium influx, peptide size) was “neuroprotective agents against T30”. The “reversal of T30-induced changes in evoked responses” value (basal forebrain) was “some significant effect in reversing the changes induced by T30”.

For “KAEFHRWSSYMVHWKNQFDHYSKQDRCSDL [T30, reference compound]”, the “% PC12 cell viability” value (PC12 cells [5]) was 74.309% and the value coefficient x (PC12 cells [4]; toxic peptide alone, x>1.1 means toxicity) was 2.28.

For “NBP14: cyclic peptide based on T14 sequence AEFHRWSSYMVHWK, cyclated via the terminal Alanine and Lysine residues (head-to-tail cyclised; listed as Homo sapiens)”, the “reversal of T30-induced changes in evoked responses” value (basal forebrain) is listed as “significantly reverse any kind of change induced by T30”, the “action at the α7 nicotinic-receptor” value (α7 nicotinic-receptor; inventors' previous work) is listed as “true antagonist of the α7 nicotinic-receptor” and the “compensatory AChE release” value (cells) is listed as “blocks compensatory AChE release induced by the toxicity of linear T14 and T30”. For the same compound, the “protection of cells from toxicity” value (cells) was “protect cells from linear T14, T30 and β-amyloid toxicity”, the “effect on Ca2+ concentrations” value (rat brain slices; given alone) was “no significant effects on Ca^2+ concentrations in rat brain slices” and the “effect on β-amyloid action on Ca2+ concentrations” value (rat brain slices) was “blocks the effects of β-amyloid”.

In the case of VHWKAEFHRWSSY [NBP-1314], the AChE (PC12 cells [1]; Aβ 5 μM + small peptide 0.5 μM) was 104.08%, the viability ([2]; Aβ 5 μM + small peptide 0.5 μM) was 97.9% and the Calcium (PC12 cells [3]; Aβ + small peptide) was 130.85. For the same compound, the “Value AChE/Viability” value (PC12 cells [4]; Aβ 5 μM + small peptide 0.5 μM) was 1.06.

Work on WKAEFH [NBP-602] yielded an AChE (PC12 cells [1]; [6]) of 112.32%, a viability [2, 6] of 108% and a Calcium (PC12 cells [3]; T30 + small peptide) of 169.86. For the same compound, the “Value AChE/Viability” value (PC12 cells [4]; [6]) was 1.04.

In the case of WKAEFHRWSSY [NBP-1102], the AChE (PC12 cells [1]; [6]) was 104.31%, the viability [2, 6] was 104% and the Calcium (PC12 cells [3]; T30 + small peptide) was 89.28. The “Value AChE/Viability” value (PC12 cells [4]; [6]) was 1.

With WKAEFHRWSSYMVH [NBP-1402] the AChE (PC12 cells [1]; Aβ 5 μM + small peptide 0.5 μM) was 99.85%, the viability ([2]; Aβ 5 μM + small peptide 0.5 μM) was 91.6% and the Calcium (PC12 cells [3]; Aβ + small peptide) was 127.81. For the same compound, the “Value AChE/Viability” value (PC12 cells [4]; Aβ 5 μM + small peptide 0.5 μM) was 1.09.

For WSSYM [NBP-509], the AChE (PC12 cells [1]; Aβ 5 μM + small peptide 0.5 μM) was 106.20%, the viability ([2]; Aβ 5 μM + small peptide 0.5 μM) was 102% and the Calcium (PC12 cells [3]; Aβ + small peptide) was 363.48. For the same compound, the “Value AChE/Viability” value (PC12 cells [4]; Aβ 5 μM + small peptide 0.5 μM) was 1.04.

For WSSYMVH [NBP-709], the AChE (PC12 cells [1]; Aβ 5 μM + small peptide 0.5 μM) was 108.99%, the viability ([2]; Aβ 5 μM + small peptide 0.5 μM) was 102% and the Calcium (PC12 cells [3]; Aβ + small peptide) was 288.61. For the same compound, the “Value AChE/Viability” value (PC12 cells [4]; Aβ 5 μM + small peptide 0.5 μM) was 1.07.

Compound WSSYMVHWKA [NBP-1009] has an AChE (PC12 cells [1]; Aβ 5 μM + small peptide 0.5 μM) of 101.23%, a viability ([2]; Aβ 5 μM + small peptide 0.5 μM) of 97.5% and a Calcium (PC12 cells [3]; Aβ + small peptide) of 255.80. For the same compound, the “Value AChE/Viability” value (PC12 cells [4]; Aβ 5 μM + small peptide 0.5 μM) was 1.04.

Compound WSSYMVHWKAEFHR [NBP-1409] has an AChE (PC12 cells [1]; [6]) of 94.85%, a viability [2, 6] of 94.8% and a Calcium (PC12 cells [3]; T30 + small peptide) of 94.59. The “Value AChE/Viability” value (PC12 cells [4]; [6]) was 1.

With YMVHW [NBP-512] the AChE (PC12 cells [1]; Aβ 5 μM + small peptide 0.5 μM) was 104.81%, the viability ([2]; Aβ 5 μM + small peptide 0.5 μM) was 104% and the Calcium (PC12 cells [3]; Aβ + small peptide) was 163.09. The “Value AChE/Viability” value (PC12 cells [4]; Aβ 5 μM + small peptide 0.5 μM) was 1.01.

Work on YMVHWKAEFHR [NBP-1112] yielded an AChE (PC12 cells [1]; Aβ 5 μM + small peptide 0.5 μM) of 98.77%, a viability ([2]; Aβ 5 μM + small peptide 0.5 μM) of 93.4% and a Calcium (PC12 cells [3]; Aβ + small peptide) of 127.62. For the same compound, the “Value AChE/Viability” value (PC12 cells [4]; Aβ 5 μM + small peptide 0.5 μM) was 1.06.

In the case of YMVHWKAEFHRW [NBP-1212], the AChE (PC12 cells [1]; [6]) was 88.29%, the viability [2, 6] was 88.3% and the Calcium (PC12 cells [3]; T30 + small peptide) was 78. For the same compound, the “Value AChE/Viability” value (PC12 cells [4]; [6]) was 1.
